From ChEMBL document CHEMBL1135678, “Pyrimidoquinazoline-based antitumor agents. Design of topoisomerase II to DNA cross-linkers with activity against protein kinases” (2002) come the findings set out here.

Each structure is given as a SMILES string. Calls of active or inactive are those of the source. The calls are words filed in the database; no cut-off is given here.

The subject of one assay is HT-29. The assay can be described thus: Compound tested for cytotoxicity against human cancer cell line (HT-29 colon); Inactive. It counts as functional, cell-based.
Settings: not given
Turning to `COCCn1c(CCl)nc2c(OC)c3c(=O)n(CCOC)c(CCl)nc3c(OC)c2c1=O`, the IA entry is “inactive”. As to `COCCCn1c(CCl)nc2c(OC)c3c(=O)n(CCCOC)c(CCl)nc3c(OC)c2c1=O`, the IA result is “inactive”.

The subject of the next assay is OVCAR-3. Kind of assay: Compound tested for cytotoxicity against human cancer cell line (Ovcar 3 ovarian). The assay is classed as functional. To be noted: read-out: LC50 (the source's name).
Turning to `Oc1nc(CBr)nc2cc3c(O)nc(CBr)nc3cc12`, the CC50 turned out to be 850 nM. The same measure, in the same setting: in the case of `Cn1c(CCl)nc2cc3c(=O)n(C)c(CCl)nc3cc2c1=O` it was 2000 nM.

The subject of the next assay is WiDr. The assay can be described thus: Compound tested for cytotoxicity against human cancer cell line (WiDr Colon). To be noted: read-out: LC50 (the source's name). The assay is classed as functional.
As for `Oc1nc(CCl)nc2cc3c(O)nc(CCl)nc3cc12`, the CC50 came to 5000 nM. The same measure, in the same setting: in the case of `Oc1nc(CBr)nc2cc3c(O)nc(CBr)nc3cc12` it was 900 nM; in that of `Cn1c(CCl)nc2cc3c(=O)n(C)c(CCl)nc3cc2c1=O`, 350 nM.

A further assay deals with HT-29. Kind of assay: Compound tested for cytotoxicity against human cancer cell line (HT-29 colon). It counts as functional.
Settings: not given
For `Cn1c(CBr)nc2cc3c(=O)n(C)c(CBr)nc3cc2c1=O`, the LC50 (50% lethal concentration) came out at 280 nM. `CCCn1c(CCl)nc2cc3c(=O)n(CCC)c(CCl)nc3cc2c1=O` displayed an LC50 (50% lethal concentration) of 800 nM. In the case of `CC(=O)Oc1nc2cc3c(=O)n(C)c(OC(C)=O)nc3cc2c(=O)n1C`, the LC50 (50% lethal concentration) worked out at 19000 nM. With `COc1c2nc(CCl)n(C)c(=O)c2c(OC)c2c(=O)n(C)c(CCl)nc12`, the LC50 (50% lethal concentration) came out at 6330 nM. The molecule `COc1c2nc(CCl)n(C)c(=O)c2c(OC)c2nc(CCl)n(C)c(=O)c12` came in with an LC50 (50% lethal concentration) of 110 nM.
